Laboratory results from patent US8969360B2, “Compounds useful as inhibitors of ATR kinase” (Vertex Pharmaceuticals Incorporated, priority 2013, dated 2015).

Key:
[1] = molecular target: T1, ATR kinase (Homo sapiens, UniProt Q13535); experiment: ATR Inhibition Assay (radioactive-phosphate incorporation); type: biochemical; conditions: Ki(app); 5 nM full-length ATR, 10 μM ATP, 800 μM target peptide, 25° C.
T1 construct: Assays were carried out at 25° C. in the presence of 5 nM full-length ATR
In short: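 Full-length ATR (5 nM) in 50 mM Tris/HCl pH 7.5, 10 mM MgCl2, 1 mM DTT, with 800 μM peptide substrate and 10 μM [γ-33P]ATP at 25 °C. Compounds (from 15 μM final, 3-fold dilutions, 7% DMSO) were preincubated 10 min; the reaction was stopped at 24 h. 33P incorporation was captured on phosphocellulose; Ki(app) was from non-linear regression of initial rates.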

[2] = test system: HCT116 colorectal cancer cells; experiment: Cisplatin Sensitization Assay (96 h cell viability MTS); type: cell-based; conditions: concentration of compound required to reduce the IC50 of Cisplatin alone by at least 3-fold; HCT116, 96 h MTS
In short: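 HCT116 cells received compound and cisplatin together as a full matrix of 2-fold dilutions, each from a 10 μM top final concentration. After 96 h at 37 °C and 5% CO2, viability was read by MTS (1 h, A490). The value is the compound concentration that lowers the cisplatin IC50 at least 3-fold.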

T1 sequence (Q13535 whole entry): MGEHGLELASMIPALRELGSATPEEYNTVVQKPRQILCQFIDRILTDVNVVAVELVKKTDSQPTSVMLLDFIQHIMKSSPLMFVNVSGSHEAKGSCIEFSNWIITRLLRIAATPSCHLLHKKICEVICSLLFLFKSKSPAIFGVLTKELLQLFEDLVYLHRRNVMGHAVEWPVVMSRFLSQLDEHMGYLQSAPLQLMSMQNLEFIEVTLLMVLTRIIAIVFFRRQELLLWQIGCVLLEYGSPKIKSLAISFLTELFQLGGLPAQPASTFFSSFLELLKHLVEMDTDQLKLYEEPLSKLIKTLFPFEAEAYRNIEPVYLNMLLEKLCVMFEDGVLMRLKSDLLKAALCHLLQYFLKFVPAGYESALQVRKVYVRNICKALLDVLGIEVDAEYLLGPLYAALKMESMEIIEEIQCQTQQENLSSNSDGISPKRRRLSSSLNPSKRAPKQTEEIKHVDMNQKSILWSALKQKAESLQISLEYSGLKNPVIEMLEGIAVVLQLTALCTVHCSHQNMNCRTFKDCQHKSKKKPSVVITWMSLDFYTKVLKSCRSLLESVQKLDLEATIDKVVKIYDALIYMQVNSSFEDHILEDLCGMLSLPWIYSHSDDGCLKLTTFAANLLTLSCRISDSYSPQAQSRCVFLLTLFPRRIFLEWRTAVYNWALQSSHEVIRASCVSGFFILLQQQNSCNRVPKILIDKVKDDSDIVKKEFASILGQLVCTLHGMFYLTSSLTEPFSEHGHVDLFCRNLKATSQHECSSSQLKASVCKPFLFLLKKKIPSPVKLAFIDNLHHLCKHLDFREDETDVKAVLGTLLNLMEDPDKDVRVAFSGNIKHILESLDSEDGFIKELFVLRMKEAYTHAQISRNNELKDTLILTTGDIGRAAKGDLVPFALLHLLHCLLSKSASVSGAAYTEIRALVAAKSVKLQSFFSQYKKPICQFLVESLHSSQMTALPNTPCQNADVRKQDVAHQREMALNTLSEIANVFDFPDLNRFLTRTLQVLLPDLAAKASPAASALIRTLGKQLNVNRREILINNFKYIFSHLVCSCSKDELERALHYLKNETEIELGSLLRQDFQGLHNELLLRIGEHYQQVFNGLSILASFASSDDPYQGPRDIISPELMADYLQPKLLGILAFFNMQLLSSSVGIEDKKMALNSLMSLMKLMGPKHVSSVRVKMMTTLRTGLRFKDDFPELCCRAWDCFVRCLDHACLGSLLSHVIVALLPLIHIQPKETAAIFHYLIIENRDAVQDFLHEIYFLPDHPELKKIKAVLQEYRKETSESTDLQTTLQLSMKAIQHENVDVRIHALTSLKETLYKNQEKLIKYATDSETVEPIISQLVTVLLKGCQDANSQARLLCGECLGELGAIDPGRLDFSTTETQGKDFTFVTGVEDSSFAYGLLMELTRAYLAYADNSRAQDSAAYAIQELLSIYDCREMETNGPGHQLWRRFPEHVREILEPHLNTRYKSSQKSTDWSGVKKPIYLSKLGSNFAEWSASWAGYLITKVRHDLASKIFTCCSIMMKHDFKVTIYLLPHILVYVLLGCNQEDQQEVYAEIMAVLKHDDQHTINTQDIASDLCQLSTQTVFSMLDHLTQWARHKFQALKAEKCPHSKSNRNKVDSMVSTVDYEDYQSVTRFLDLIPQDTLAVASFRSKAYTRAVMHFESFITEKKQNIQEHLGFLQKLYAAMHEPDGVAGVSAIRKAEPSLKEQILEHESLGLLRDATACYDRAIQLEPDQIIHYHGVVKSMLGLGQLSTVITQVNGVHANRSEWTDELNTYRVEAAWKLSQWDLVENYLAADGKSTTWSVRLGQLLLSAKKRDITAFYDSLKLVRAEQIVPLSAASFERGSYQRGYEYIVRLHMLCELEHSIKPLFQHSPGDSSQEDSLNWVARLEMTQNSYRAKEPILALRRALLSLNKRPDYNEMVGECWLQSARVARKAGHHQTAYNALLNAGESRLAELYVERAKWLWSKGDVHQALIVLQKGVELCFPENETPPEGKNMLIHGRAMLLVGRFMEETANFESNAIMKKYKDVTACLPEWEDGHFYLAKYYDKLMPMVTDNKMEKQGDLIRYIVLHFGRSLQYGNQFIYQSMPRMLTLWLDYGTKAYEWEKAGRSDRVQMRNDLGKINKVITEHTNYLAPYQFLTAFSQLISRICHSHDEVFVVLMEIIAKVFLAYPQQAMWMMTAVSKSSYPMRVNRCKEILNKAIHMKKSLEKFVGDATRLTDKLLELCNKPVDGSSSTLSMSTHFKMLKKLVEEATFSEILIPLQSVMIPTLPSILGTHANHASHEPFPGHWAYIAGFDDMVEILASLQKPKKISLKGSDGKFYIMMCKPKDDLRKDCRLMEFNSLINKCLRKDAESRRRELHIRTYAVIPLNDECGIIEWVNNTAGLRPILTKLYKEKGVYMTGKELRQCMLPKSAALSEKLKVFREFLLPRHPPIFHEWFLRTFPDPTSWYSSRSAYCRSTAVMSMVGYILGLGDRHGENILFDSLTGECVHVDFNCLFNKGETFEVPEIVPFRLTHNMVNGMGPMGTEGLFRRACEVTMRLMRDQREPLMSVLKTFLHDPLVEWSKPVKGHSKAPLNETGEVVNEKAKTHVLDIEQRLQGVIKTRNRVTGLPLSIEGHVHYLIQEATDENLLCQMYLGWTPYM

Ki [1] | Compound | Synergy with Cisplatin [2]
0.01 to 1 µM | COc1ccncc1NC(=O)c1c(N)nn2ccc(N3CCN4CCC[C@@H]4C3)nc12 [I-O-75, (R)-2-amino-5-(hexahydropyrrolo[1,2-a]pyrazin-2(1H)-yl)-N-(4-methoxypyridin-3-yl)pyrazolo[1,5-a]pyrimidine-3-carboxamide] | ++ (Compounds with a Cisplatin sensitization value>0.02 μM but <0.2 μM are marked with “++.”)
< 0.01 µM | COc1ccncc1NC(=O)c1c(N)nn2ccc(N3CCNC(C(F)(F)F)C3)nc12 (centres unmarked) [I-O-74, 2-amino-N-(4-methoxypyridin-3-yl)-5-(3-(trifluoromethyl)piperazin-1-yl)pyrazolo[1,5-a]pyrimidine-3-carboxamide] | +++ (Compounds with a Cisplatin sensitization value of <0.02 μM are marked with “+++.”)
0.01 to 1 µM | Nc1nn2ccc(C(F)(F)F)nc2c1C(=O)Nc1cnccc1OCC1CCC(N)CC1 (centres unmarked) [I-O-37, 2-amino-N-(4-((4-aminocyclohexyl)methoxy)pyridin-3-yl)-5-(trifluoromethyl)pyrazolo[1,5-a]pyrimidine-3-carboxamide] | ++ (Compounds with a Cisplatin sensitization value>0.02 μM but <0.2 μM are marked with “++.”)
0.01 to 1 µM | CNCc1ccn2nc(N)c(C(=O)Nc3cnccc3OC)c2n1 [I-O-66, 2-amino-N-(4-methoxypyridin-3-yl)-5-((methylamino)methyl)pyrazolo[1,5-a]pyrimidine-3-carboxamide] | ++ (Compounds with a Cisplatin sensitization value>0.02 μM but <0.2 μM are marked with “++.”)
0.01 to 1 µM | Nc1nn2ccc(C(F)(F)F)nc2c1C(=O)Nc1cnccc1O[C@@H]1CCOC1 [I-O-9, (R)-2-amino-N-(4-((tetrahydrofuran-3-yl)oxy)pyridin-3-yl)-5-(trifluoromethyl)pyrazolo[1,5-a]pyrimidine-3-carboxamide] | +++ (Compounds with a Cisplatin sensitization value of <0.02 μM are marked with “+++.”)
1 to 5 µM | Cc1ccncc1NC(=O)c1c(N)nn2ccc(OCCN(C)C)nc12 [I-C-3, 2-amino-5-(2-(dimethylamino)ethoxy)-N-(4-methylpyridin-3-yl)pyrazolo[1,5-a]pyrimidine-3-carboxamide] | ++ (Compounds with a Cisplatin sensitization value>0.02 μM but <0.2 μM are marked with “++.”)
0.01 to 1 µM | COc1ccncc1NC(=O)c1c(N)nn2ccc(OCCN3CCCC3)nc12 [I-O-60, 2-amino-N-(4-methoxypyridin-3-yl)-5-(2-(pyrrolidin-1-yl)ethoxy)pyrazolo[1,5-a]pyrimidine-3-carboxamide] | ++ (Compounds with a Cisplatin sensitization value>0.02 μM but <0.2 μM are marked with “++.”)
1 to 5 µM | CN1CCC(Oc2c(Cl)cncc2NC(=O)c2c(N)nn3ccc(C(F)(F)F)nc23)CC1 [I-O-49, 2-amino-N-(5-chloro-4-((1-methylpiperidin-4-yl)oxy)pyridin-3-yl)-5-(trifluoromethyl)pyrazolo[1,5-a]pyrimidine-3-carboxamide] | + (Compounds with a Cisplatin sensitization value >0.2 μM but <5 μM are marked with “+.”)
< 0.01 µM | COc1ccncc1NC(=O)c1c(N)nn2ccc(NCC3COC3)nc12 [I-O-68, 2-amino-N-(4-methoxypyridin-3-yl)-5-((oxetan-3-ylmethyl)amino)pyrazolo[1,5-a]pyrimidine-3-carboxamide] | ++ (Compounds with a Cisplatin sensitization value>0.02 μM but <0.2 μM are marked with “++.”)
0.01 to 1 µM | Nc1nn2ccc(C(F)(F)F)nc2c1C(=O)Nc1cnccc1Oc1ccncc1 [I-O-16, 2-amino-N-(4-(pyridin-4-yloxy)pyridin-3-yl)-5-(trifluoromethyl)pyrazolo[1,5-a]pyrimidine-3-carboxamide] | + (Compounds with a Cisplatin sensitization value >0.2 μM but <5 μM are marked with “+.”)
0.01 to 1 µM | CC(C)Oc1ccncc1NC(=O)c1c(N)nn2ccc(C(F)(F)F)nc12 [I-O-4, 2-amino-N-(4-isopropoxypyridin-3-yl)-5-(trifluoromethyl)pyrazolo[1,5-a]pyrimidine-3-carboxamide] | +++ (Compounds with a Cisplatin sensitization value of <0.02 μM are marked with “+++.”)
0.01 to 1 µM | CN(C)CCOc1cc(C(F)(F)F)ncc1NC(=O)c1c(N)nn2ccc(C(F)(F)F)nc12 [I-O-51, 2-amino-N-(4-(2-(dimethylamino)ethoxy)-6-(trifluoromethyl)pyridin-3-yl)-5-(trifluoromethyl)pyrazolo[1,5-a]pyrimidine-3-carboxamide] | + (Compounds with a Cisplatin sensitization value >0.2 μM but <5 μM are marked with “+.”)
0.01 to 1 µM | COc1cc(Cl)ncc1NC(=O)c1c(N)nn2ccc(OCCN(C)C)nc12 [I-O-65, 2-amino-N-(6-chloro-4-methoxypyridin-3-yl)-5-(2-(dimethylamino)ethoxy)pyrazolo[1,5-a]pyrimidine-3-carboxamide] | + (Compounds with a Cisplatin sensitization value >0.2 μM but <5 μM are marked with “+.”)
0.01 to 1 µM | Nc1nn2ccc(C(F)(F)F)nc2c1C(=O)Nc1cnccc1O[C@@H]1CCNC1 [I-O-25, (R)-2-amino-N-(4-(pyrrolidin-3-yloxy)pyridin-3-yl)-5-(trifluoromethyl)pyrazolo[1,5-a]pyrimidine-3-carboxamide] | ++ (Compounds with a Cisplatin sensitization value>0.02 μM but <0.2 μM are marked with “++.”)
0.01 to 1 µM | CN(C)C1CCC(COc2ccncc2NC(=O)c2c(N)nn3ccc(C(F)(F)F)nc23)CC1 (centres unmarked) [I-O-42, 2-amino-N-(4-((4-(dimethylamino)cyclohexyl)methoxy)pyridin-3-yl)-5-(trifluoromethyl)pyrazolo[1,5-a]pyrimidine-3-carboxamide] | +++ (Compounds with a Cisplatin sensitization value of <0.02 μM are marked with “+++.”)
1 to 5 µM | CN(C)C1CCC(Oc2ccncc2NC(=O)c2c(N)nn3ccc(C(F)(F)F)nc23)CC1 (centres unmarked) [I-O-44, 2-amino-N-(4-(((1s,4s)-4-(dimethylamino)cyclohexyl)oxy)pyridin-3-yl)-5-(trifluoromethyl)pyrazolo[1,5-a]pyrimidine-3-carboxamide] | + (Compounds with a Cisplatin sensitization value >0.2 μM but <5 μM are marked with “+.”)
0.01 to 1 µM | Nc1nn2ccc(C(F)(F)F)nc2c1C(=O)Nc1cnccc1OCCN1CC2(COC2)C1 [I-O-38, N-(4-(2-(2-oxa-6-azaspiro[3.3]heptan-6-yl)ethoxy)pyridin-3-yl)-2-amino-5-(trifluoromethyl)pyrazolo[1,5-a]pyrimidine-3-carboxamide] | + (Compounds with a Cisplatin sensitization value >0.2 μM but <5 μM are marked with “+.”)
0.01 to 1 µM | CN(C)CCCOc1ccncc1NC(=O)c1c(N)nn2ccc(C(F)(F)F)nc12 [I-O-27, 2-amino-N-(4-(3-(dimethylamino)propoxy)pyridin-3-yl)-5-(trifluoromethyl)pyrazolo[1,5-a]pyrimidine-3-carboxamide] | ++ (Compounds with a Cisplatin sensitization value>0.02 μM but <0.2 μM are marked with “++.”)
0.01 to 1 µM | CN1CCC(Oc2ccncc2NC(=O)c2c(N)nn3ccc(C(F)(F)F)nc23)CC1 [I-O-31, 2-amino-N-(4-((1-methylpiperidin-4-yl)oxy)pyridin-3-yl)-5-(trifluoromethyl)pyrazolo[1,5-a]pyrimidine-3-carboxamide] | ++ (Compounds with a Cisplatin sensitization value>0.02 μM but <0.2 μM are marked with “++.”)
